Measurements as given in patent publication EP0454444A1, “Glutarimide derivatives and herbicides” (NISSAN CHEMICAL INDUSTRIES LTD., priority 1990, dated 1991).

Tests used:
Test in all cases: Herbicidal effect test by soil treatment
Assay type in all cases: in vivo
[1] = test system: annual sedge (Cyperus microiria); settings: three weeks after spraying
Text: (§1) In a plastic box of 15 cm length, 22 cm width and 6 cm depth, there was placed a sterilized dilvial soil, and seeds of barnyardgrass (Echinochloa crusgalli), large crabgrass (Digitaria adscendens), annual sedge (Cyperus microiria), black nightshade (Solanum nigrum L.), hairly galinosoga (Galinsoga ciliat), rorippa ssp. (Rorippa atrovirens), rice (Oryza sativa), corn (Zea mays), wheat (Triticum aestivum), soybean (Glysine max) and cotton (Gossypium herbaceum) were sown mixedly. After covering soil to about 1 cm over the seeds, herbicides were sprayed evenly on the soil surface to predetermined proportions of the active ingredient In spraying, the wettable powder, emulsifiable concentrate, dry flowable or flowable in the above formulation examples were diluted with water and sprayed over the entire surface by means of a small sprayer. Three weeks after spraying, the herbicidal effect on crop plants including rice, corn, wheat, soybean, cotton and various kinds of weeds were examined according to the judgement criteria shown below. Judgement criteria
(§2) The above growth control rates are determined by measuring the top fresh weights of the treated plants and those of the non-treated plants, and culculated from the following formula: [formula]

[2] = test system: barnyardgrass (Echinochloa crusgalli); settings: three weeks after spraying
Text: as §1, §2

[3] = test system: black nightshade (Solanum nigrum L.); settings: three weeks after spraying
Text: as §1, §2

corn (Zea mays) = settings: crop plant, three weeks after spraying
Text: as §1, §2

[4] = test system: cotton (Gossypium herbaceum); settings: crop plant, three weeks after spraying
Text: as §1, §2

[5] = test system: hairly galinosoga (Galinsoga ciliat); settings: three weeks after spraying
Text: as §1, §2

[6] = test system: large crabgrass (Digitaria adscendens); settings: three weeks after spraying
Text: as §1, §2

rice (Oryza sativa) = settings: crop plant, three weeks after spraying
Text: as §1, §2

[7] = test system: rorippa ssp. (Rorippa atrovirens); settings: three weeks after spraying
Text: as §1, §2

soybean (Glysine max) = settings: crop plant, three weeks after spraying
Text: as §1, §2

[8] = test system: wheat (Triticum aestivum); settings: crop plant, three weeks after spraying
Text: as §1, §2

| Compound | herbicidal effect, K (Cyperus microiria) ([1]; application amount 1.6 g/a) | herbicidal effect, N (Echinochloa crusgalli) ([2]; application amount 1.6 g/a) | herbicidal effect, H (Solanum nigrum L.) ([3]; application amount 1.6 g/a) | herbicidal effect, T (Zea mays) (corn (Zea mays); application amount 1.6 g/a) | herbicidal effect, C (Gossypium herbaceum) ([4]; application amount 1.6 g/a) | herbicidal effect, D (Galinsoga ciliat) ([5]; application amount 1.6 g/a) | herbicidal effect, M (Digitaria adscendens) ([6]; application amount 1.6 g/a) | herbicidal effect, R (Oryza sativa) (rice (Oryza sativa); application amount 1.6 g/a) | herbicidal effect, I (Rorippa indica) ([7]; application amount 1.6 g/a) | herbicidal effect, S (Glysine max) (soybean (Glysine max); application amount 1.6 g/a) | herbicidal effect, W (Triticum vulgare) ([8]; application amount 1.6 g/a) | herbicidal effect, K (Cyperus microiria) ([1]; application amount 0.4 g/a) | herbicidal effect, K (Cyperus microiria) ([1]; application amount 0.8 g/a) | herbicidal effect, N (Echinochloa crusgalli) ([2]; application amount 0.4 g/a) | herbicidal effect, N (Echinochloa crusgalli) ([2]; application amount 0.8 g/a) | herbicidal effect, H (Solanum nigrum L.) ([3]; application amount 0.4 g/a) | herbicidal effect, H (Solanum nigrum L.) ([3]; application amount 0.8 g/a) | herbicidal effect, T (Zea mays) (corn (Zea mays); application amount 0.4 g/a) | herbicidal effect, T (Zea mays) (corn (Zea mays); application amount 0.8 g/a) | herbicidal effect, C (Gossypium herbaceum) ([4]; application amount 0.4 g/a) | also measured |
| --- | --- | --- | --- | --- | --- | --- | --- | --- | --- | --- | --- | --- | --- | --- | --- | --- | --- | --- | --- | --- | --- |
| CCS(=O)(=O)Nc1cc(N2C(=O)CC(C(F)(F)F)CC2=O)c(F)cc1Cl [1-15] | 5 (Growth control,rates of more than 90% (almost completely withered)) | 3 (Growth control rates of 40 to 70%) | 5 (Growth control,rates of more than 90% (almost completely withered)) | 0 (Growth control rates of less than 5% (substantially no effect)) | 0 (Growth control rates of less than 5% (substantially no effect)) | 5 (Growth control,rates of more than 90% (almost completely withered)) | 5 (Growth control,rates of more than 90% (almost completely withered)) | 0 (Growth control rates of less than 5% (substantially no effect)) | 5 (Growth control,rates of more than 90% (almost completely withered)) | 0 (Growth control rates of less than 5% (substantially no effect)) | 0 (Growth control rates of less than 5% (substantially no effect)) |  |  |  |  |  |  |  |  |  |  |
| O=C1COc2cc(F)c(N3C(=O)CC(C(F)(F)F)CC3=O)cc2N1Cc1ccccc1 [1-27] | 5 (Growth control,rates of more than 90% (almost completely withered)) | 5 (Growth control,rates of more than 90% (almost completely withered)) | 5 (Growth control,rates of more than 90% (almost completely withered)) | 4 (Growth control rates of 70 to 90%) | 2 (Growth control rates of 20 to 40%) | 5 (Growth control,rates of more than 90% (almost completely withered)) | 5 (Growth control,rates of more than 90% (almost completely withered)) | 4 (Growth control rates of 70 to 90%) | 5 (Growth control,rates of more than 90% (almost completely withered)) | 1 (Growth control rates of 5 to 20%) | 5 (Growth control,rates of more than 90% (almost completely withered)) | 5 (Growth control,rates of more than 90% (almost completely withered)) | 5 (Growth control,rates of more than 90% (almost completely withered)) | 5 (Growth control,rates of more than 90% (almost completely withered)) | 5 (Growth control,rates of more than 90% (almost completely withered)) | 5 (Growth control,rates of more than 90% (almost completely withered)) | 5 (Growth control,rates of more than 90% (almost completely withered)) | 0 (Growth control rates of less than 5% (substantially no effect)) | 1 (Growth control rates of 5 to 20%) | 0 (Growth control rates of less than 5% (substantially no effect)) | herbicidal effect, C (Gossypium herbaceum) ([4]; application amount 0.8 g/a): 1 (Growth control rates of 5 to 20%); herbicidal effect, D (Galinsoga ciliat) ([5]; application amount 0.4 g/a): 5 (Growth control,rates of more than 90% (almost completely withered)); herbicidal effect, D (Galinsoga ciliat) ([5]; application amount 0.8 g/a): 5 (Growth control,rates of more than 90% (almost completely withered)); herbicidal effect, M (Digitaria adscendens) ([6]; application amount 0.4 g/a): 5 (Growth control,rates of more than 90% (almost completely withered)); herbicidal effect, M (Digitaria adscendens) ([6]; application amount 0.8 g/a): 5 (Growth control,rates of more than 90% (almost completely withered)); herbicidal effect, R (Oryza sativa) (rice (Oryza sativa); application amount 0.4 g/a): 2 (Growth control rates of 20 to 40%); herbicidal effect, R (Oryza sativa) (rice (Oryza sativa); application amount 0.8 g/a): 3 (Growth control rates of 40 to 70%); herbicidal effect, I (Rorippa indica) ([7]; application amount 0.4 g/a): 5 (Growth control,rates of more than 90% (almost completely withered)); herbicidal effect, I (Rorippa indica) ([7]; application amount 0.8 g/a): 5 (Growth control,rates of more than 90% (almost completely withered)); herbicidal effect, S (Glysine max) (soybean (Glysine max); application amount 0.4 g/a): 0 (Growth control rates of less than 5% (substantially no effect)); herbicidal effect, S (Glysine max) (soybean (Glysine max); application amount 0.8 g/a): 0 (Growth control rates of less than 5% (substantially no effect)); herbicidal effect, W (Triticum vulgare) ([8]; application amount 0.4 g/a): 2 (Growth control rates of 20 to 40%); herbicidal effect, W (Triticum vulgare) ([8]; application amount 0.8 g/a): 4 (Growth control rates of 70 to 90%) |
| CC(C)OC(=O)c1cc(N2C(=O)CC(C(F)(F)F)C(C)C2=O)c(F)cc1Cl (centres unmarked) [1-3] | 5 (Growth control,rates of more than 90% (almost completely withered)) | 5 (Growth control,rates of more than 90% (almost completely withered)) | 5 (Growth control,rates of more than 90% (almost completely withered)) | 4 (Growth control rates of 70 to 90%) | 3 (Growth control rates of 40 to 70%) | 5 (Growth control,rates of more than 90% (almost completely withered)) | 5 (Growth control,rates of more than 90% (almost completely withered)) | 5 (Growth control,rates of more than 90% (almost completely withered)) | 5 (Growth control,rates of more than 90% (almost completely withered)) | 2 (Growth control rates of 20 to 40%) | 5 (Growth control,rates of more than 90% (almost completely withered)) | 5 (Growth control,rates of more than 90% (almost completely withered)) | 5 (Growth control,rates of more than 90% (almost completely withered)) | 5 (Growth control,rates of more than 90% (almost completely withered)) | 5 (Growth control,rates of more than 90% (almost completely withered)) | 5 (Growth control,rates of more than 90% (almost completely withered)) | 5 (Growth control,rates of more than 90% (almost completely withered)) | 2 (Growth control rates of 20 to 40%) | 3 (Growth control rates of 40 to 70%) | 0 (Growth control rates of less than 5% (substantially no effect)) | herbicidal effect, C (Gossypium herbaceum) ([4]; application amount 0.8 g/a): 1 (Growth control rates of 5 to 20%); herbicidal effect, D (Galinsoga ciliat) ([5]; application amount 0.4 g/a): 5 (Growth control,rates of more than 90% (almost completely withered)); herbicidal effect, D (Galinsoga ciliat) ([5]; application amount 0.8 g/a): 5 (Growth control,rates of more than 90% (almost completely withered)); herbicidal effect, M (Digitaria adscendens) ([6]; application amount 0.4 g/a): 5 (Growth control,rates of more than 90% (almost completely withered)); herbicidal effect, M (Digitaria adscendens) ([6]; application amount 0.8 g/a): 5 (Growth control,rates of more than 90% (almost completely withered)); herbicidal effect, R (Oryza sativa) (rice (Oryza sativa); application amount 0.4 g/a): 4 (Growth control rates of 70 to 90%); herbicidal effect, R (Oryza sativa) (rice (Oryza sativa); application amount 0.8 g/a): 5 (Growth control,rates of more than 90% (almost completely withered)); herbicidal effect, I (Rorippa indica) ([7]; application amount 0.4 g/a): 5 (Growth control,rates of more than 90% (almost completely withered)); herbicidal effect, I (Rorippa indica) ([7]; application amount 0.8 g/a): 5 (Growth control,rates of more than 90% (almost completely withered)); herbicidal effect, S (Glysine max) (soybean (Glysine max); application amount 0.4 g/a): 0 (Growth control rates of less than 5% (substantially no effect)); herbicidal effect, S (Glysine max) (soybean (Glysine max); application amount 0.8 g/a): 0 (Growth control rates of less than 5% (substantially no effect)); herbicidal effect, W (Triticum vulgare) ([8]; application amount 0.4 g/a): 2 (Growth control rates of 20 to 40%); herbicidal effect, W (Triticum vulgare) ([8]; application amount 0.8 g/a): 3 (Growth control rates of 40 to 70%) |
